Experiments:
[1] = test system: human primary retinal Müller cells; assay: Optical stress (strong white light) model of human primary retinal Müller cells, AlamarBlue cell viability; format: cell-based; settings: pre-incubation 24 h, 32k Lux strong light 4 h
Procedure: The human primary Müller cells in a logarithmic growth phase were inoculated at a density of 5,000 cells/well in a 96-well plate and cultured in a 37° C., 5% CO2 incubator for 24 h. The medium was removed by aspirating, and 6 replicate wells were set up for guaijaverin groups. 100 μL of the guaijaverin solution dissolved in DMSO solvent in advance was further diluted in DMEM and added into each well, at final concentrations of 10 μM and 30 μM, respectively. The control group was added with 100 μL of DMEM solution. A laboratory-made strong light irradiation system was used to model optical stress on human retinal primary Müller cells cultured in vitro. A strong light irradiation group was irradiated with 32k Lux of strong light for 4 h, while a weak light irradiation group was irradiated with 5k Lux of weak light for 4 h. Then, the cell viability was detected using the AlamarBlue kit.
After the cells were stressed by light, the AlamarBlue kit was used to detect cell viability. The cell culture supernatant was discarded, and the cells were washed twice with 100 μL of PBS. 100 μL of AlamarBlue reagent diluted 1:10 with DMEM solution was added, and the cells were incubated in a 37° C., 5% CO2 incubator for 4 h. The fluorescence of each well was read using a microplate reader at an excitation wavelength of 544 nm and an emission wavelength of 590 nm. 2.

mouse retina = assay: Mouse retinal optical damage model, H&E histopathological evaluation of retina; format: in vivo, BALB/c mice; settings: for morphology and thickness of the outer nuclear layer retina and inner nuclear layer retina (H&E): gavage once a day 10 days, vs model group, FIG. 5
Procedure: (§1) A self-made light box with a length of 108 cm, a width of 50 cm, and a height of 72 cm was used, and the light intensity was measured by a light meter to be 8,500-10,000 Lux. After eye examination, 60 mice with normal eyeballs were selected and randomly divided into a control group, a model group, a lutein group (100 mg/kg), a guaijaverin low-dose group (50 mg/kg), and a guaijaverin high-dose group (100 mg/kg), with 12 mice in each group. Lutein and guaijaverin were suspended in 5% sodium carboxymethylcellulose (CMC-Na) solution and administered by gavage once a day. The mice in the control and model groups were administered by gavage with an equal volume of 5% CMC-Na for 10 consecutive days. 10 days later, the mice in the model group, lutein group, guaijaverin low-dose group, and guaijaverin high-dose group were kept in the dark for 36 h, atropine eye gel was applied to both eyes of the mice to induce pupil dilation, and the mice were placed in the self-made lighting device of 8,000-10,000 Lux (the control group was raised in a normal environment) and given continuous light for 24 h. After the light exposure, the mice in each group had their eyeballs removed to draw blood and eyeball tissue collected for subsequent experimental tests.
Eyeball tissues of 6 mice were collected from each group for Hematoxylin-eosin staining (H&E) and TUNEL fluorescence staining of apoptotic cells, and the pathological changes of mouse eyeball tissues were observed using an optical microscope (completed by Wuhan Servicebio Biotechnology Co., Ltd.).
a) Dewaxing of paraffin sections to water: the sections were sequentially placed in environmental-friendly dewaxing solution I for 20 min, environmental-friendly dewaxing solution II for 20 min, anhydrous ethanol I for 5 min, anhydrous ethanol II for 5 min, and 75% alcohol for 5 min, and then wash with tap water.
b) Pretreatment: the sections were placed into H&E high-definition constant staining pretreatment solution for 1 min. […]
f) The sections were examined under a microscope and the images were collected and analyzed.

T-AOC = assay: Mouse retinal optical damage model, plasma total antioxidant capacity (T-AOC); format: in vivo, BALB/c mice; settings: gavage once a day 10 days, vs model group, FIG. 7
Procedure: as §1, with “After the light exposure, the mice in each group had their eyeballs removed to draw blood and eyeball tissue collected for subsequent experimental tests.” left out
The mouse blood was collected in an anticoagulant tube and centrifuged at 3,000 rpm for 10 min at 4° C. to collect the upper plasma. The T-AOC content was determined according to the method provided by the kit manufacturer.

IL-6 = assay: Mouse retinal optical damage model, plasma IL-6 level; format: in vivo, BALB/c mice; settings: gavage once a day 10 days, vs model group, FIG. 8
Procedure: as §1, with “After the light exposure, the mice in each group had their eyeballs removed to draw blood and eyeball tissue collected for subsequent experimental tests.” left out
The mouse blood was collected in an anticoagulant tube and centrifuged at 3,000 rpm for 10 min at 4° C. to collect the upper plasma. The IL-6 content was determined according to the method provided by the kit manufacturer.

[2] = test system: Heme Oxygenase-1 (HO-1 protein); assay: Mouse retinal optical damage model, Western blot of HO-1 protein in retina; format: in vivo, BALB/c mice; settings: high-dose 100 mg/kg, gavage once a day 10 days, vs model group, FIG. 9
Procedure: A self-made light box with a length of 108 cm, a width of 50 cm, and a height of 72 cm was used, and the light intensity was measured by a light meter to be 8,500-10,000 Lux. After eye examination, 60 mice with normal eyeballs were selected and randomly divided into a control group, a model group, a lutein group (100 mg/kg), a guaijaverin low-dose group (50 mg/kg), and a guaijaverin high-dose group (100 mg/kg), with 12 mice in each group. Lutein and guaijaverin were suspended in 5% sodium carboxymethylcellulose (CMC-Na) solution and administered by gavage once a day. The mice in the control and model groups were administered by gavage with an equal volume of 5% CMC-Na for 10 consecutive days. […]
The mouse retina was taken, and 100-150 μL of RIPA lysis buffer was added for every 10 mg of tissue. After sufficient lysis, the protein content was detected using a BCA protein quantification kit. […] The bands were analyzed by the supporting software of the red laser two-color imaging system, with GAPDH protein expression as an internal reference.

## O=c1c(O[C@@H]2OC[C@H](O)[C@H](O)[C@H]2O)c(-c2ccc(O)c(O)c2)oc2cc(O)cc(O)c12 [Guaijaverin, guaijaverin]
[1]; 10 μM, FIG. 1
  viability of Müller cells after strong light irradiation: significantly restored
[1]; 30 μM, FIG. 2
  viability of Müller cells after strong light irradiation: restored to the level under weak light irradiation conditions
Mouse retina; high-dose 100 mg/kg vs lutein 100 mg/kg
  anti-optical damage eye protection efficacy compared with lutein (H&E): better anti-optical damage eye protection efficacy than lutein
Mouse retina; high-dose 100 mg/kg
  morphology and thickness of the outer nuclear layer retina and inner nuclear layer retina (H&E): increase the thickness of the outer nuclear layer retina and inner nuclear layer retina
Mouse retina; low-dose 50 mg/kg
  morphology and thickness of the outer nuclear layer retina and inner nuclear layer retina (H&E): increase the thickness of the outer nuclear layer retina and inner nuclear layer retina
T-AOC; high-dose 100 mg/kg
  plasma T-AOC level: significantly increase the T-AOC level
T-AOC; low-dose 50 mg/kg
  plasma T-AOC level: significantly increase the T-AOC level
IL-6; high-dose 100 mg/kg
  plasma level of IL-6: significantly reduce the level of IL-6
IL-6; low-dose 50 mg/kg
  plasma level of IL-6: significantly reduce the level of IL-6
[2]
  expression of HO-1 protein in the retinal tissue: significantly reduced the expression of HO-1 protein

From patent publication US20250367160A1, “USE OF GUAIJAVERIN IN PREPARATION OF EYE PROTECTION PRODUCT” (Innovation Center of Yangtze River Delta, ZJU, priority 2024, published 2025)
